The test concerns the target GSK-3β (Homo sapiens, UniProt P49841). The experiment in a line: ADP Glo GSK-3β kinase assay. The format is biochemical. To be noted: ADP Glo kinase assay; for IC50: n = 2 (14b n = 5, 24 n = 3), read-out: IC50 (µM) Mean ± SEM GSK-3β; for GSK-3β inhibition (in words): hit 1 from kinome-wide screening. The protocol: To extend the biological profile of this novel class of 7-chloro-9H-pyrimido[4,5-b]indole-based GSK-3β inhibitors, we tested the lead compound 14b for its ATP competition in our ADP Glo assay system.
ATP Binding Competition of Compound 14b
Compound 14b was analyzed for its competition with ATP in an ADP Glo GSK-3β assay. To
this end, a dilution series of 14b was incubated with 25 µM, 100 µM and 500 µM of ATP and
corresponding IC50 values were determined. Results and inhibition curves are listed in
Table S1. IC50 values for compound 14b in the ATP binding competition experiment.
ATP concentration [µM] GSK-3β
a IC50 values were determined in an ADP Glo kinase assay , n = 1; b n = 5.
Figure S3. Inhibition curves of compound 14b in the presence of 100 µM and 500 µM ATP.
(1 picture or pasted object on this page, not shown here)

Chain of GSK-3β (P49841 whole entry): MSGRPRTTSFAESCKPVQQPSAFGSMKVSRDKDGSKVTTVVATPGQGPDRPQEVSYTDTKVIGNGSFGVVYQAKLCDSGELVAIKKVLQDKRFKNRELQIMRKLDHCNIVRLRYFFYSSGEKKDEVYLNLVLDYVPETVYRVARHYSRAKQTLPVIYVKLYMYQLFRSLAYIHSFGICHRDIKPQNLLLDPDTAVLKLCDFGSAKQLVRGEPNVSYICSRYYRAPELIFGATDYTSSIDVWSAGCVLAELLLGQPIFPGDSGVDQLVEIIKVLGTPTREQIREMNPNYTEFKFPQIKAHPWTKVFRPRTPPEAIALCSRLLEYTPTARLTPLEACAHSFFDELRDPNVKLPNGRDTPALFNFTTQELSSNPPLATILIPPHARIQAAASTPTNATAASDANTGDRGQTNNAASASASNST

In the case of `CN(c1ncnc2[nH]c3cc(Cl)ccc3c12)C1CCCN(CCC(F)(F)F)C1` (stereo not shown) [Compound 14k, 7-Chloro-N-methyl-N-(1-(3,3,3-trifluoropropyl)piperidin-3-yl)-9H-pyrimido[4,5-b]indol-4-amine], the IC50 is greater than 10 µM and the “GSK-3β inhibition (in words)” value was “inactive”. For `COC(=O)CCN1CCCC(N(C)c2ncnc3[nH]c4cc(Cl)ccc4c23)C1` (stereo not shown) [Compound 14d, Methyl-3-(3-((7-chloro-9H-pyrimido[4,5-b]indol-4-yl)(methyl)amino)piperidin-1-yl)propanoate], in that order: greater than 10 µM and “dramatic decrease in activity”. The like results for `CN(c1ncnc2c1c1ccc(Cl)cc1n2C)C1CCCN(CCC#N)C1` (stereo not shown) [Compound 14o, 3-(3-((7-Chloro-9-methyl-9H-pyrimido[4,5-b]indol-4-yl)(methyl)amino)piperidin-1-yl)propanenitrile] were, in that order, greater than 10 µM and “inactive”.

As to `CN(c1ncnc2[nH]c3cc(Cl)ccc3c12)C1CCCN(CCC(N)=O)C1` (stereo not shown) [Compound 14c, 3-(3-((7-Chloro-9H-pyrimido[4,5-b]indol-4-yl)(methyl)amino)piperidin-1-yl)propanamide], the IC50 is greater than 10 µM and the “GSK-3β inhibition (in words)” value is recorded as “dramatic decrease in activity”. The like results for `CN(c1ncnc2[nH]c3cc(Cl)ccc3c12)C1CCCN(CC#N)C1` (stereo not shown) [Compound 14l, 2-(3-((7-Chloro-9H-pyrimido[4,5-b]indol-4-yl)(methyl)amino)piperidin-1-yl)acetonitrile] were, in that order, greater than 10 µM and “inactive”. For `CCCN1CCCC(N(C)c2ncnc3[nH]c4cc(Cl)ccc4c23)C1` (stereo not shown) [Compound 14e, 7-Chloro-N-methyl-N-(1-propylpiperidin-3-yl)-9H-pyrimido[4,5-b]indol-4-amine], in that order: greater than 10 µM and “severe decrease in activity”. For `CN(c1ncnc2[nH]c3cc(Cl)ccc3c12)C1CCCN(CC2CC2)C1` (stereo not shown) [Compound 14m, 7-Chloro-N-(1-(cyclopropylmethyl)piperidin-3-yl)-N-methyl-9H-pyrimido[4,5-b]indol-4-amine], in that order: greater than 10 µM and “severe decrease in activity”. Regarding `CN(c1ncnc2[nH]c3cc(Cl)ccc3c12)C1CCCN(C2CCCC2)C1` (stereo not shown) [Compound 14g, 7-Chloro-N-(1-cyclopentylpiperidin-3-yl)-N-methyl-9H-pyrimido[4,5-b]indol-4-amine], the IC50 is greater than 10 µM and the “GSK-3β inhibition (in words)” value is listed as “severe decrease in activity”. For the molecule `CN(C)CCCN1CCCC(N(C)c2ncnc3[nH]c4cc(Cl)ccc4c23)C1` (stereo not shown) [Compound 14n, 7-Chloro-N-(1-(3-(dimethylamino)propyl)piperidin-3-yl)-N-methyl-9H-pyrimido[4,5-b]indol-4-amine], the IC50 is 3.56 ± 0.664 µM and the “GSK-3β inhibition (in words)” value is reported as “remarkably reduced GSK-3β inhibition”. Turning to `CN(c1ncnc2[nH]c3cc(Cl)ccc3c12)C1CCCN(Cc2ccncc2)C1` (stereo not shown) [Compound 14i, 7-Chloro-N-methyl-N-(1-(pyridin-4-ylmethyl)piperidin-3-yl)-9H-pyrimido[4,5-b]indol-4-amine], the IC50 is greater than 10 µM.

With `CN(c1ncnc2[nH]c3cc(Cl)ccc3c12)C1CCCN(Cc2ccco2)C1` (stereo not shown) [Compound 14h, 7-Chloro-N-(1-(furan-2-ylmethyl)piperidin-3-yl)-N-methyl-9H-pyrimido[4,5-b]indol-4-amine], the IC50 is greater than 10 µM. `CC(C)N1CCCC(N(C)c2ncnc3[nH]c4cc(Cl)ccc4c23)C1` (stereo not shown) [Compound 14f, 7-Chloro-N-(1-isopropylpiperidin-3-yl)-N-methyl-9H-pyrimido[4,5-b]indol-4-amine]: the IC50 was greater than 10 µM and the “GSK-3β inhibition (in words)” value is given as “severe decrease in activity”. As for `CN(c1ncnc2[nH]c3cc(Cl)ccc3c12)C1CCCN(CCC#N)CC1` (stereo not shown) [Compound 16, 3-(4-((7-Chloro-9H-pyrimido[4,5-b]indol-4-yl)(methyl)amino)azepan-1-yl)propanenitrile], the IC50 amounted to 1.54 ± 0.284 µM. Still for that read-out and setting: in the case of `CN(c1ncnc2[nH]c3cc(Cl)ccc3c12)C1CCCN(C(=O)CC#N)C1` (stereo not shown) [Compound 14a, 3-(3-((7-Chloro-9H-pyrimido[4,5-b]indol-4-yl)(methyl)amino)piperidin-1-yl)-3-oxopropanenitrile] it was 1.86 ± 0.113 µM.

Take `C[C@@H]1CCN(C(=O)CC#N)C[C@@H]1N(C)c1ncnc2[nH]c3cc(Cl)ccc3c12` [Compound 1, 3-((3R,4R)-3-((7-Chloro-9H-pyrimido[4,5-b]indol-4-yl)(methyl)amino)-4-methylpiperidin-1-yl)-3-oxopropanenitrile]: the “GSK-3β inhibition (in words)” value was “single-digit micromolar range”. Regarding `CN(c1ncnc2[nH]c3cc(Cl)ccc3c12)C1CCN(CCC#N)CC1` [Compound 17, 3-(4-((7-Chloro-9H-pyrimido[4,5-b]indol-4-yl)(methyl)amino)piperidin-1-yl)propanenitrile], the IC50 turned out to be 13.3 ± 4.39 µM.

In the case of `CN(c1ncnc2[nH]c3cc(Cl)ccc3c12)C1CCN(CCC#N)C1` (stereo not shown) [Compound 15, 3-(3-((7-Chloro-9H-pyrimido[4,5-b]indol-4-yl)(methyl)amino)pyrrolidin-1-yl)propanenitrile], the IC50 stood at 7.02 ± 1.08 µM. Same read-out and setting: in the case of `CN(c1ncnc2[nH]c3cc(Cl)ccc3c12)C1CCCN(Cc2cccc(C#N)c2)C1` (stereo not shown) [Compound 14j, 3-((3-((7-Chloro-9H-pyrimido[4,5-b]indol-4-yl)(methyl)amino)piperidin-1-yl)methyl)benzonitrile] it was greater than 10 µM.

Broadly, the IC50 is the concentration needed to halve the response being measured.

The values above are taken from article PMC6630214, “Design, Synthesis and Biological Evaluation of 7-Chloro-9H-pyrimido[4,5-b]indole-based Glycogen Synthase Kinase-3β Inhibitors” (Molecules, 2019).
